# Laboratory results: patent publication US20230391760A1, “HETEROCYCLIC GLP-1 AGONISTS” (Gasherbrum Bio, Inc., priority 2020, published 2023)
# Target: GLP-1 Receptor (Homo sapiens, UniProt P43220)
# Test: GLP-1R agonist cAMP stimulation assay (HEK293/GLP1R/CRE-LUC cells, cAMP dynamic 2 Kit)
# Assay type: cell-based
# Conditions: HEK293/CRE-Luc cell line stably expressing the GLP-1 Receptor, 30 min at 37° C.
# Method in brief: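 cAMP measured by HTRF competition (d2-labelled cAMP with cryptate antibody, 1 h, room temperature, protected from light). Before that, GLP1R/CRE-Luc HEK293 cells (1000/well) were exposed for 30 min at 37 °C to half-log compound dilutions in DPBS containing IBMX 0.5 mM and BSA 0.1%.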
# Sequence of GLP-1 Receptor (P43220 24-463, species assumed): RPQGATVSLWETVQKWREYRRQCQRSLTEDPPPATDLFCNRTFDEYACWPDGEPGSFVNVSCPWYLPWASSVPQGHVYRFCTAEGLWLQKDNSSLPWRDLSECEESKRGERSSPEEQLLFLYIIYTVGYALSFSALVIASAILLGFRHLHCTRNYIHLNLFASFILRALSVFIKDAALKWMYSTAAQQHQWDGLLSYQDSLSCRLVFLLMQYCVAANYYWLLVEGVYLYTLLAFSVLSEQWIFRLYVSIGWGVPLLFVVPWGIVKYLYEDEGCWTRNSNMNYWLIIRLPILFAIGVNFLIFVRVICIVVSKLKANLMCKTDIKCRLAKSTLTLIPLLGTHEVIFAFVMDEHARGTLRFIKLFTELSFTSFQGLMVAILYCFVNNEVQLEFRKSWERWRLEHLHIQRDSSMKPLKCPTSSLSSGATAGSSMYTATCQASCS
row,EC50,Structure (SMILES)
1,0.04 nM,"C[C@]1(c2ccc(Cl)cc2F)Oc2cccc(C3CCN(Cc4nc5cc(-c6nnc[nH]6)ncc5n4C[C@@H]4CCO4)CC3)c2O1 [Compound 440a, 4-[(2S)-2-(4-chloro-2-fluorophenyl)-2-methyl-2H-1,3-benzodioxol-4-yl]-1-[(3-{[(2S)-oxetan-2-yl]methyl}-6-(4H-1,2,4-triazol-3-yl)-3H-imidazo[4,5-c]pyridin-2-yl)methyl]piperidine]"
2,6.5 nM,"CC1(c2ccc(Cl)cc2F)Oc2cccc(C3CCN(Cc4nc5cc(-c6nc(Br)ns6)ccc5n4C[C@@H]4CCO4)CC3)c2O1 (stereo partly drawn) [Compound 409a, 5-(3-bromo-1,2,4-thiadiazol-5-yl)-2-({4-[2-(4-chloro-2-fluorophenyl)-2-methyl-2H-1,3-benzodioxol-4-yl]piperidin-1-yl}methyl)-1-{[(2S)-oxetan-2-yl]methyl}-1H-1,3-benzodiazole]"
3,0.079 nM,"Fc1cc(Cl)ccc1COc1nc(N2CCN(Cc3nc4cc(-c5nnc(C(F)(F)F)[nH]5)cnc4n3C[C@@H]3CCO3)CC2)ncc1F [Compound 511a, 4-[(4-chloro-2-fluorophenyl)methoxy]-5-fluoro-2-{4-[(3-{[(2S)-oxetan-2-yl]methyl}-6-[5-(trifluoromethyl)-4H-1,2,4-triazol-3-yl]-3H-imidazo[4,5-b]pyridin-2-yl)methyl]piperazin-1-yl}pyrimidine]"
4,0.025 nM,"CC1(c2ccc(Cl)cc2F)Oc2cc(F)cc(C3CCN(Cc4nc5cc(-c6nnc(C(F)(F)F)[nH]6)ncc5n4C[C@@H]4CCO4)CC3)c2O1 (stereo partly drawn) [Compound 441a, 4-[2-(4-chloro-2-fluorophenyl)-6-fluoro-2-methyl-2H-1,3-benzodioxol-4-yl]-1-[(3-{[(2S)-oxetan-2-yl]methyl}-6-[5-(trifluoromethyl)-4H-1,2,4-triazol-3-yl]-3H-imidazo[4,5-c]pyridin-2-yl)methyl]piperidine]"
5,0.04 nM,"Fc1cc(Cl)ccc1COc1cccc(C2CCN(Cc3nc4cc(-c5nnc(C(F)(F)F)[nH]5)ncc4n3C[C@@H]3CCO3)CC2F)n1 (stereo partly drawn) [Compound 499a, 2-[(4-chloro-2-fluorophenyl)methoxy]-6-[(3,4-trans)-3-fluoro-1-[(3-{[(2S)-oxetan-2-yl]methyl}-6-[5-(trifluoromethyl)-4H-1,2,4-triazol-3-yl]-3H-imidazo[4,5-c]pyridin-2-yl)methyl]piperidin-4-yl]pyridine]"
6,0.019 nM,"C[C@]1(c2ccc(C#N)cc2F)Oc2cccc(C3CCN(Cc4nc5cc(-c6nnc(C(F)(F)F)[nH]6)nnc5n4C[C@@H]4CCO4)CC3)c2O1 [Compound 447a, 3-fluoro-4-[(2S)-2-methyl-4-{1-[(7-{[(2S)-oxetan-2-yl]methyl}-3-[5-(trifluoromethyl)-4H-1,2,4-triazol-3-yl]-7H-imidazo[4,5-c]pyridazin-6-yl)methyl]piperidin-4-yl}-2H-1,3-benzodioxol-2-yl]benzonitrile]"
7,0.063 nM,"Fc1cc(Cl)ccc1COc1ncccc1C1CCN(Cc2nc3cc(-c4nnc(C(F)(F)F)[nH]4)ccc3n2C[C@@H]2CCO2)CC1 [Compound 393a, 2-[(4-{2-[(4-chloro-2-fluorophenyl)methoxy]pyridin-3-yl}piperidin-1-yl)methyl]-1-{[(2S)-oxetan-2-yl]methyl}-5-[5-(trifluoromethyl)-4H-1,2,4-triazol-3-yl]-1H-1,3-benzodiazole]"
8,0.34 nM,"CO[C@@H](C)Cn1c(CN2CCC(c3cccc4c3O[C@@](C)(c3ccc(Cl)cc3F)O4)CC2)nc2cc(-c3noc(=O)[nH]3)ncc21 [Compound 421a, 3-[2-({4-[(2S)-2-(4-chloro-2-fluorophenyl)-2-methyl-2H-1,3-benzodioxol-4-yl]piperidin-1-yl}methyl)-3-[(2S)-2-methoxypropyl]-3H-imidazo[4,5-c]pyridin-6-yl]-4,5-dihydro-1,2,4-oxadiazol-5-one]"

# More lines, now with the values behind:
row,Structure (SMILES),EC50
1,"O=c1[nH]c(-c2cnc3c(c2)nc(CN2CC=C(c4cccc(OCc5ccc(Cl)cc5F)c4)CC2)n3C[C@@H]2CCO2)no1 [Compound 320a, 3-{2-[(4-{3-[(4-chloro-2-fluorophenyl)methoxy]phenyl}-1,2,3,6-tetrahydropyridin-1-yl)methyl]-3-{[(2S)-oxetan-2-yl]methyl}-3H-imidazo[4,5-b]pyridin-6-yl}-4,5-dihydro-1,2,4-oxadiazol-5-one]",6.8 nM
2,"CC(=O)Nc1cnc2c(c1)nc(CN1CCC(c3cccc(OCc4ccc(Cl)cc4F)n3)CC1)n2C[C@@H]1CCO1 [Compound 131a, N-{2-[(4-{6-[(4-chloro-2-fluorophenyl)methoxy]pyridin-2-yl}piperidin-1-yl)methyl]-3-{[(2S)-oxetan-2-yl]methyl}-3H-imidazo[4,5-b]pyridin-6-yl}acetamide]",6.3 nM
3,"CC1(c2ccc(C#N)cc2F)Oc2cccc(C3CCN(Cc4nc5cc(-c6nnc(C7CC7)[nH]6)cnc5n4C[C@@H]4CCO4)CC3)c2O1 (stereo partly drawn) [Compound 276a, 4-[4-(1-{[6-(5-cyclopropyl-4H-1,2,4-triazol-3-yl)-3-{[(2S)-oxetan-2-yl]methyl}-3H-imidazo[4,5-b]pyridin-2-yl]methyl}piperidin-4-yl)-2-methyl-2H-1,3-benzodioxol-2-yl]-3-fluorobenzonitrile]",0.56 nM
4,"C[C@]1(c2ccc(Cl)cn2)Oc2cccc(C3CCN(Cc4nc5cc(-c6n[nH]c(C(F)(F)F)n6)cnc5n4C[C@@H]4CCO4)CC3)c2O1 (single isomer, unassigned) [Compound 333c]",0.95 nM
5,"Fc1cc(Cl)ccc1COc1cccc(C2CCN(Cc3nc4cc(-c5cn(C6CCCOC6)nn5)ccc4n3C[C@@H]3CCO3)CC2)n1 (stereo partly drawn) [Compound 209a, 2-[(4-{6-[(4-chloro-2-fluorophenyl)methoxy]pyridin-2-yl}piperidin-1-yl)methyl]-5-[1-(oxan-3-yl)-1H-1,2,3-triazol-4-yl]-1-{[(2S)-oxetan-2-yl]methyl}-1H-1,3-benzodiazole]",3.2 nM
6,"C[C@]1(c2ccc(Cl)cc2F)Oc2cccc(C3CCN(Cc4nc5cc(-c6nnc(C(F)(F)F)[nH]6)nnc5n4C[C@@H]4CCO4)CC3)c2O1 [Compound 359a, 4-[(2S)-2-(4-chloro-2-fluorophenyl)-2-methyl-2H-1,3-benzodioxol-4-yl]-1-[(7-{[(2S)-oxetan-2-yl]methyl}-3-[5-(trifluoromethyl)-4H-1,2,4-triazol-3-yl]-7H-imidazo[4,5-c]pyridazin-6-yl)methyl]piperidine]",0.014 nM
7,"CC1(c2ccc(Cl)cc2F)Oc2cccc(C3CCN(Cc4nc5cc(-c6nnc(C(F)(F)F)[nH]6)cnc5n4C[C@@H]4CCO4)CC3)c2O1 (mixture of isomers) [Compound 224a, 4-[2-(4-chloro-2-fluorophenyl)-2-methyl-2H-1,3-benzodioxol-4-yl]-1-[(3-{[(2S)-oxetan-2-yl]methyl}-6-[5-(trifluoromethyl)-4H-1,2,4-triazol-3-yl]-3H-imidazo[4,5-b]pyridin-2-yl)methyl]piperidine]",0.018 nM
8,"CC1(c2ccc(Cl)cc2)Oc2cccc(C3CCN(Cc4nc5cc(-c6nnc(C(F)(F)F)[nH]6)ccc5n4C[C@@H]4CCO4)CC3)c2O1 (stereo partly drawn) [Compound 226a, 2-({4-[2-(4-chlorophenyl)-2-methyl-2H-1,3-benzodioxol-4-yl]piperidin-1-yl}methyl)-1-{[(2S)-oxetan-2-yl]methyl}-5-[5-(trifluoromethyl)-4H-1,2,4-triazol-3-yl]-1H-1,3-benzodiazole]",0.13 nM
9,"COc1ccc(C(=O)Nc2ccc3c(c2)nc(CN2CCC(c4cccc(OCc5ccc(Cl)cc5F)n4)CC2)n3C[C@@H]2CCO2)cn1 [Compound 175a, N-{2-[(4-{6-[(4-chloro-2-fluorophenyl)methoxy]pyridin-2-yl}piperidin-1-yl)methyl]-1-{[(2S)-oxetan-2-yl]methyl}-1H-1,3-benzodiazol-5-yl}-6-methoxypyridine-3-carboxamide]",1.5 nM
10,"CC1(c2ccc(Cl)cc2F)Oc2cccc(C3CCN(Cc4nc5cc(-c6nnc(C(F)(F)F)[nH]6)ccc5n4C[C@@H]4CCO4)CC3)c2O1 (mixture of isomers) [Compound 229a, 2-({4-[2-(4-chloro-2-fluorophenyl)-2-methyl-2H-1,3-benzodioxol-4-yl]piperidin-1-yl}methyl)-1-{[(2S)-oxetan-2-yl]methyl}-5-[5-(trifluoromethyl)-4H-1,2,4-triazol-3-yl]-1H-1,3-benzodiazole]",0.046 nM
11,"Fc1cc(Cl)ccc1COc1ncc(F)c(C2=CCC(Cc3nc4cc(-c5nnn[nH]5)ccc4n3C[C@@H]3CCO3)CC2)n1 (stereo partly drawn) [Compound 241a, 2-((4-(2-((4-chloro-2-fluorobenzyl)oxy)-5-fluoropyrimidin-4-yl)cyclohex-3-en-1-yl)methyl)-1-(((S)-oxetan-2-yl)methyl)-5-(1H-tetrazol-5-yl)-1H-benzo[d]imidazole]",0.32 nM
12,"Cc1nnc(-c2cnc3c(c2)nc(CN2CCC(c4cccc5c4O[C@@](C)(c4ccc(Cl)cc4F)O5)CC2)n3C[C@@H]2CCO2)[nH]1 [Compound 292a, 4-[(2S)-2-(4-chloro-2-fluorophenyl)-2-methyl-2H-1,3-benzodioxol-4-yl]-1-{[6-(5-methyl-4H-1,2,4-triazol-3-yl)-3-{[(2S)-oxetan-2-yl]methyl}-3H-imidazo[4,5-b]pyridin-2-yl]methyl}piperidine]",0.1 nM
13,"Cc1nnc(-c2cc3nc(CN4CCC(c5cccc6c5OC(C)(c5ccc(Cl)cn5)O6)CC4)n(C[C@@H]4CCO4)c3cn2)[nH]1 (stereo partly drawn) [Compound 267a, 5-chloro-2-[2-methyl-4-(1-{[6-(5-methyl-4H-1,2,4-triazol-3-yl)-3-{[(2S)-oxetan-2-yl]methyl}-3H-imidazo[4,5-c]pyridin-2-yl]methyl}piperidin-4-yl)-2H-1,3-benzodioxol-2-yl]pyridine]",0.051 nM
14,"Fc1cc(Cl)ccc1COc1cccc(C2CCN(Cc3nc4cc(-c5nnc(C(F)(F)F)[nH]5)cnc4n3C[C@@H]3CCO3)CC2)n1 [Compound 327a, 2-[(4-chloro-2-fluorophenyl)methoxy]-6-{1-[(3-{[(2S)-oxetan-2-yl]methyl}-6-[5-(trifluoromethyl)-4H-1,2,4-triazol-3-yl]-3H-imidazo[4,5-b]pyridin-2-yl)methyl]piperidin-4-yl}pyridine]",0.013 nM
